{"source": "paper PMC11219860", "about": "“A chemogenetic approach for dopamine imaging with tunable sensitivity” (Nature Communications, 2024)", "key": {"[1]": {"tested_on": "14 other human targets (including D5, D2, Beta-1, Beta-2 and 5-HT6)", "set-up": "method as in Hao et al., 2019", "conditions": "at 10 uM; ref Hao et al., 2019; cited from earlier work"}, "dLight1.3b": {"tested_on": "dLight1.3b", "assay": "NAc dLight1.3b photometry with food restriction", "format": "in vivo, mouse", "conditions": "DETQ 10 mg/kg", "description": "To determine how metabolic state modulates tonic DA levels, DAT^IREScre mice expressing dLight1.3b in the NAc core were tested in either the fed state (ad libitum), the food-restricted state (mice food restricted to 90% of baseline body weight for 5–7 days), or after 4 weeks recovery from food-restriction (ad libitum). Daily food intake was measured per cage (2–3 mice per cage). […] Mice were injected i.p. with vehicle at 0 min and DETQ (10 mg/kg) 10–15 min later, then recording lasted 50 min.\nFor long-term recordings during optogenetic stimulation or chemogenetic inhibition linear fit was calculated across the entire recording or across the vehicle epoch; for event-related experiments fit was performed on fluorescent data obtained in the −60 to +60 s around opto events or −5 to −1 s around behavioral events. […] DA event-related responses were quantified by computing the value at the transient’s peak value and the AUC in the 0 to 10 s or 0 to 60 s period post-event onset. […] The maximal peak value of Veh-normalized ΔF/F0 after opto-onset was plotted over time and the plateau of maximal response was determined by averaging peak opto responses 5, 10, 15 and 20 min post-DETQ. […] AUC of the baseline was calculated within the +5 to +40 minutes time window post ip injection. […]"}, "msADRA1a": {"molecular_target": "T1, msADRA1a (Mus musculus, UniProt P97718)", "T1 construct": "expressed in transfected cells; host or cells: HEK293T", "T1 sequence (P97718 whole entry)": "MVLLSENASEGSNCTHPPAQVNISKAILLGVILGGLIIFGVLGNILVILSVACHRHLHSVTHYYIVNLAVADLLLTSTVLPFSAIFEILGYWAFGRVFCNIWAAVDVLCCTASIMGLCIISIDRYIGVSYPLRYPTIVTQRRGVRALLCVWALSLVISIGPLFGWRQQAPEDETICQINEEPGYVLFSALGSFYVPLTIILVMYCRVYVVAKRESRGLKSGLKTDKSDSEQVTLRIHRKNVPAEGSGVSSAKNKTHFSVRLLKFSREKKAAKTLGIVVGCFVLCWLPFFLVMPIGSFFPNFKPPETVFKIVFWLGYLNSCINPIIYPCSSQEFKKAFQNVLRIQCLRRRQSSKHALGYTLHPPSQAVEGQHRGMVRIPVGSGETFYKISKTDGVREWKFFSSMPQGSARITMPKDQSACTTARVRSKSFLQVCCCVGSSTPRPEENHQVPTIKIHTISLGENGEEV", "assay": "NanoBit complementation assay of mini-Gq recruitment", "format": "cell-based", "description": "To measure the effect of DETQ on mini-G protein recruitment by different GPCRs we used a Nanoluciferase (NanoBit)-based complementation assay[26],[27]. For this HEK293T cells were seeded in six-well plates (Techno Plastic Products) at a density of 300,000 cells per well and co-transfected with plasmids encoding either hmDRD1, msDRD1, msDRD2, msDRD5, msADRA1a, msβ2AR or ms5HT6 carrying a C-terminally fused SmBiT, in combination with the corresponding mini-G protein probe[78] (mini-Gs: for DRD1, DRD5, β2AR, 5HT6R; mini-Gq: for ADRA1a; or mini-Gi: for DRD2), which were N-terminally fused to LgBiT, in a 1:1 DNA ratio using Effectene transfection reagent (Qiagen). […] The plate was incubated at 37 °C for 30 min, before the luminescence signal was measured at 37 °C using a Tecan Spark plate reader before and after the manual addition of 25 µl of either ligand solution (final concentrations ranging from 1 nM to 100 µM), pure Fluorobrite-DMEM or 25 µl of a DETQ solution (1 µM final concentration).\nFor in vitro luminescence assays, ligand traces were divided by buffer traces, the area under the curve for each trace was calculated using GraphPad Prism, values were normalized and fitted as dose response curve. […] The statistical significance was determined using Welch’s ANOVA followed by Dunnett’s multiple comparison test (comparison of ligand or vehicle to ligand). […]"}}}
{"smiles": "C[C@H]1c2cccc(C(C)(C)O)c2C[C@H](CO)N1C(=O)Cc1c(Cl)cccc1Cl", "note": "[DETQ, 2-(2,6-dichlorophenyl)-1-((1S,3R)-3-(hydroxymethyl)-5-(2-hydroxypropan-2-yl)-1-methyl-3,4-dihydroisoquinolin-2(1H)-yl)ethan-1-one]", "values": [{"measurement": "activity in potentiator mode", "setting": "[1]", "result": "no activity was found"}, {"measurement": "step-like increase in baseline fluorescence, food-restriction versus ad libitum state", "setting": "dLight1.3b", "result": "significantly higher"}, {"measurement": "agonist mode: direct agonist effect", "setting": "msADRA1a; DETQ 1 µM alone", "result": "no direct agonist effect"}, {"measurement": "allosteric modulator mode: effect on agonist dose-response", "setting": "msADRA1a; DETQ 1 µM, NE", "result": "No allosteric effect"}]}
